31 compounds from article PMC8286840, “Identifying SARS-CoV-2 antiviral compounds by screening for small molecule inhibitors of Nsp3 papain-like protease” (Biochemical Journal, 2021) can be followed below.

Where a name gives a salt, the structure may show the parent alone. Read-outs that look alike come from different tables or passages of the source. Where a SMILES comes first, the peptide text is derived from it. The star is where a group is joined. Cbz = O=C(OCc1ccccc1)*; CH2F = FC*

Assay [1] has as its target T1, SARS-CoV-2 PLpro (nsp3 1564–1878) (Severe acute respiratory syndrome coronavirus 2, UniProt P0DTD1). Put plainly: biochemical. The conditions noted are these: read-out: % of control remaining. More on the design: FRET-quenched peptide (Pro3) cleavage by PLpro, 10 min pre-incubation, slope over 20 min, normalised to no-compound control.
Assay [2] concerns the target T1, SARS-CoV-2 PLpro (nsp3 1564–1878). As to the kind of experiment: biochemical. More on the design: FRET-quenched peptide (Pro3) cleavage by PLpro, 10 min pre-incubation, slope over 20 min, normalised to no-compound control. The settings on record: read-out: % of control remaining. This is another data set of the same source.
Procedure: The plates were organized with columns 3–22 containing the compounds; the remaining columns were used for reaction controls including substrate only and substrate with enzyme but no compound (Figure 3Aii). The PLpro enzyme was pre-incubated with the compounds for 10 min, and then the reaction was initiated by the addition of substrate. […] We incubated the inhibitors with PLpro before the enzymatic reaction so that the slow-binding inhibitors will not be missed out [21]. […] Fluorescence was read on a Spark multimode microplate reader (Tecan) with an excitation wavelength at 330 nm and emission wavelength at 420 nm. […] An amount of 5 µl of the enzyme was pre-incubated with compounds for 10 min before the addition of 15 µl substrate. Fluorescence was monitored at 2 min for 20 min with 3 min intervals giving a total of seven readings.

Turning to `OC[C@@H](O)[C@@H](O)[C@H](O)[C@H](O)CO` [D-Mannitol], the remaining activity at 3.75 µM in assay [1] (Well no.=6397, high concentration screen) was 96.4%; in assay [1] (Well no.=8434, high concentration screen), 96.1%. In addition, the remaining activity at 1.25 µM in assay [2] (Well no.=6397, low concentration screen) was found to be 104%; in assay [2] (Well no.=8434, low concentration screen), 96.7%.

Turning to `N[C@@H](CS(=O)O)C(=O)O` [L-Cysteinesulfinic Acid], the remaining activity at 3.75 µM in assay [1] (Well no.=128, high concentration screen) amounted to 96.5%. In assay [2] (Well no.=128, low concentration screen), the remaining activity at 1.25 µM was found to be 93.4%.

For the compound `C[N+]1(C)CCC[C@H]1C(=O)O`, the remaining activity at 3.75 µM in assay [1] (Well no.=3118, high concentration screen) came out at 105%. Moreover, the remaining activity at 1.25 µM in assay [2] (Well no.=3118, low concentration screen) worked out at 107%.

With `COC(=O)C(N)Cc1ccc(Cl)cc1` (racemic) [DL-p-Chlorophenylalanine methyl ester hydrochloride], the remaining activity at 3.75 µM in assay [1] (Well no.=364, high concentration screen) was 91.1%. Moreover, the remaining activity at 1.25 µM in assay [2] (Well no.=364, low concentration screen) was found to be 95.9%.

With `COCCc1ccc(OCC(O)CNC(C)C)cc1` (stereo not drawn) [Metoprolol (Succinate)], the remaining activity at 3.75 µM in assay [1] (Well no.=7475, high concentration screen) worked out at 95.9%. Also, in assay [2] (Well no.=7475, low concentration screen), the remaining activity at 1.25 µM worked out at 94.3%.

On to `c1ccc(CCCN2CCN(CCOC(c3ccccc3)c3ccccc3)CC2)cc1` [GBR-12935 dihydrochloride], for which the remaining activity at 3.75 µM in assay [1] (Well no.=765, high concentration screen) stood at 87.4%. For the same compound, the remaining activity at 1.25 µM in assay [2] (Well no.=765, low concentration screen) was 91%.

For the compound `CC(C)Cn1cnc2c(N)nc3ccccc3c21` [Imiquimod], the remaining activity at 3.75 µM in assay [1] (Well no.=2222, high concentration screen) was found to be 94.3%; in assay [1] (Well no.=8069, high concentration screen) it was 108%. Further, the remaining activity at 1.25 µM in assay [2] (Well no.=2222, low concentration screen) worked out at 94%; in assay [2] (Well no.=8069, low concentration screen), 109%.

For `O=C(CNC(=O)c1cccc(C(F)(F)F)c1)N[C@@H]1CCN(Cc2ccc(Cl)cc2)C1` [Teijin compound 1 hydrochloride], the remaining activity at 3.75 µM in assay [1] (Well no.=5505, high concentration screen) came out at 112%. The remaining activity at 1.25 µM in assay [2] (Well no.=5505, low concentration screen) turned out to be 104%.

Regarding `O=C(Oc1cccc(F)c1OC(=O)c1cccc(O)c1)c1cccc(O)c1` [WZB117], the remaining activity at 3.75 µM in assay [1] (Well no.=8770, high concentration screen) is 101%. The remaining activity at 1.25 µM in assay [2] (Well no.=8770, low concentration screen) is 102%.

`CCC(=O)c1ccc2c(c1)N(CCCN(C)C)c1ccccc1S2` [Propionylpromazine hydrochloride]: the remaining activity at 3.75 µM in assay [1] (Well no.=1301, high concentration screen) worked out at 106%. Also, the remaining activity at 1.25 µM in assay [2] (Well no.=1301, low concentration screen) was 103%.

Take `Nc1ccn([C@@H]2O[C@H](COP(=O)(O)O)[C@@H](O)[C@H]2O)c(=O)n1` [5'-Cytidylic acid]: in assay [1] (Well no.=8883, high concentration screen), the remaining activity at 3.75 µM was found to be 86.7%. The remaining activity at 1.25 µM in assay [2] (Well no.=8883, low concentration screen) stood at 83.4%.

Take `O=C1C=C2C=C[C@@H]3C[C@@]2(O1)[C@H]1CCCCN31` [Securinine]: the remaining activity at 3.75 µM in assay [1] (Well no.=3749, high concentration screen) turned out to be 100%. In assay [2] (Well no.=3749, low concentration screen), the remaining activity at 1.25 µM was determined as 99.6%.

Turning to `CCc1oc2ccccc2c1C(=O)c1cc(Br)c(O)c(Br)c1` [Benzbromarone], the remaining activity at 3.75 µM in assay [1] (Well no.=8442, high concentration screen) was found to be 85.1%. In addition, the remaining activity at 1.25 µM in assay [2] (Well no.=8442, low concentration screen) was determined as 86.8%.

As for `Cc1ccc(C(=O)c2ccc(CC(=O)O)n2C)cc1` [Tolmetin], the remaining activity at 3.75 µM in assay [1] (Well no.=1998, high concentration screen) turned out to be 101%. Besides, the remaining activity at 1.25 µM in assay [2] (Well no.=1998, low concentration screen) was 101%.

For `O=C(ON1C(=O)CCC1=O)N1CCN(C(c2ccc(Cl)cc2)c2ccc(Cl)cc2)CC1` [MJN110], in assay [1] (Well no.=5560, high concentration screen), the remaining activity at 3.75 µM is 100%. Further, the remaining activity at 1.25 µM in assay [2] (Well no.=5560, low concentration screen) was found to be 97.4%.

Regarding `COC1=C[C@@H](C)[C@@H]2C[C@H]3OC(=O)C[C@H]4C(C)=C(OC)C(=O)[C@H]([C@@]2(C)C1=O)[C@@]34C` [Quassin], in assay [1] (Well no.=3775, high concentration screen), the remaining activity at 3.75 µM amounted to 101%. Also, in assay [2] (Well no.=3775, low concentration screen), the remaining activity at 1.25 µM is 94.2%.

For the compound `C=CCSC[C@H](N)C(=O)O` [S-Allyl-L-cysteine], the remaining activity at 3.75 µM in assay [1] (Well no.=5435, high concentration screen) was determined as 97%. In addition, the remaining activity at 1.25 µM in assay [2] (Well no.=5435, low concentration screen) stood at 99.1%.

Take `NC(=O)NCCCC[C@H](N)C(=O)O` [L-Homocitrulline]: the remaining activity at 3.75 µM in assay [1] is 89.3%. The remaining activity at 1.25 µM in assay [2] came to 101%.

Consider `CC[C@H](C)[C@H](NC(=O)OCc1ccccc1)C(=O)N[C@@H](CCC(=O)OC)C(=O)N[C@H](C(=O)N[C@@H](CC(=O)OC)C(=O)CF)[C@@H](C)O` [Z-IETD-FMK] (Cbz-IE(OMe)TD(OMe)-CH2F), for which, in assay [1] (Well no.=8262, high concentration screen), the remaining activity at 3.75 µM amounted to 96.2%. Moreover, the remaining activity at 1.25 µM in assay [2] (Well no.=8262, low concentration screen) came to 98.1%.

On to `CCCN1CCC[C@@H](c2cccc(C#N)c2)C1` [S(-)-DS 121 hydrochloride], for which the remaining activity at 3.75 µM in assay [1] (Well no.=596, high concentration screen) is 101%. For the same compound, the remaining activity at 1.25 µM in assay [2] (Well no.=596, low concentration screen) was determined as 100%.

On to `C[C@H]1O[C@@H](n2cnc3c(N)ncnc32)[C@H](O)[C@@H]1O` [5'-Deoxyadenosine], for which the remaining activity at 3.75 µM in assay [1] (Well no.=7251, high concentration screen) was found to be 99%; in assay [1] (Well no.=7904, high concentration screen), 94.7%. Further, the remaining activity at 1.25 µM in assay [2] (Well no.=7251, low concentration screen) was determined as 97.6%; in assay [2] (Well no.=7904, low concentration screen) it was 91.4%.

With `CC(C)=CCC/C(C)=C/CC/C(C)=C/CSc1ccccc1C(=O)O` [Farnesylthiosalicylic acid], the remaining activity at 3.75 µM in assay [1] (Well no.=567, high concentration screen) is 102%. Further, the remaining activity at 1.25 µM in assay [2] (Well no.=567, low concentration screen) turned out to be 102%.

On to `CON(C)C(=O)[C@H](O)[C@H](Cc1ccccc1)NC(=O)c1cc2cc(Cl)ccc2[nH]1` [N-{(1S,2R)-1-benzyl-2-hydroxy-3-[methoxy(methyl)amino]-3-oxopropyl}-5-chloro-1H-indole-2-carboxamide], for which, in assay [1] (Well no.=6057, high concentration screen), the remaining activity at 3.75 µM was determined as 97.9%. In addition, the remaining activity at 1.25 µM in assay [2] (Well no.=6057, low concentration screen) worked out at 100%.

With `O=C(O)c1cc2cc(Cc3cccnc3)ccc2o1` [Furegrelate sodium], in assay [1] (Well no.=563, high concentration screen), the remaining activity at 3.75 µM came to 97.3%. For the same compound, in assay [2] (Well no.=563, low concentration screen), the remaining activity at 1.25 µM was 97.2%.

As to `C=C[C@](C)(O)CC[C@@H]1[C@@]2(C)CCCC(C)(C)[C@@H]2CC[C@@]1(C)O` [Sclareol], in assay [1] (Well no.=3388, high concentration screen), the remaining activity at 3.75 µM was 96.1%. The remaining activity at 1.25 µM in assay [2] (Well no.=3388, low concentration screen) stood at 91.2%.

Turning to `COc1cc(OC)c(C(=O)CCCN2CCCC2)c(OC)c1` [Buflomedil HCl], the remaining activity at 3.75 µM in assay [1] (Well no.=5296, high concentration screen) was found to be 97.4%. Further, the remaining activity at 1.25 µM in assay [2] (Well no.=5296, low concentration screen) came out at 101%.

For the compound `CC(C)c1cccc(C(C)C)c1N1C(=O)c2ccc(O)cc2C1=O` [5HPP-33], the remaining activity at 3.75 µM in assay [1] (Well no.=6085, high concentration screen) turned out to be 99.4%. Further, in assay [2] (Well no.=6085, low concentration screen), the remaining activity at 1.25 µM stood at 101%.

Regarding `N[C@]1(C(=O)O)CC[C@H](C(=O)O)C1` [trans-ACPD], the remaining activity at 3.75 µM in assay [1] (Well no.=7040, high concentration screen) stood at 96.7%. For the same compound, the remaining activity at 1.25 µM in assay [2] (Well no.=7040, low concentration screen) worked out at 98.2%.

As for `C[C@H](NC(=O)C(C)(C)Oc1ccc(C(F)(F)F)cn1)[C@@H](Cc1ccc(Cl)cc1)c1cccc(C#N)c1` [Taranabant], in assay [1] (Well no.=7147, high concentration screen), the remaining activity at 3.75 µM came to 87.5%. The remaining activity at 1.25 µM in assay [2] (Well no.=7147, low concentration screen) was 103%.

As to `C[C@H](CCC(=O)NCC(=O)O)[C@H]1CC[C@H]2[C@@H]3[C@@H](O)C[C@@H]4C[C@H](O)CC[C@]4(C)[C@H]3CC[C@]12C` [Glycoursodeoxycholic acid], the remaining activity at 3.75 µM in assay [1] (Well no.=7311, high concentration screen) was 106%. Further, the remaining activity at 1.25 µM in assay [2] (Well no.=7311, low concentration screen) was determined as 108%.

Take `COc1nc(C)nc(Cl)c1NC1=NCCN1` [Moxonidine]: the remaining activity at 3.75 µM in assay [1] (Well no.=4724, high concentration screen) was determined as 92.3%. Moreover, the remaining activity at 1.25 µM in assay [2] (Well no.=4724, low concentration screen) stood at 98.7%; in assay [2] (Well no.=7423, low concentration screen) it was 106%.
